In US20050279350A1, “Methods and apparatus for relieving headaches, rhinitis and other common ailments” (priority 1999, published 2005):

System: mucous membrane of the nose, nasal passages, and mouth
Experiment: Effective and tolerable carbon dioxide flows found by the inventors (description)
Format: in vivo, human
Text: Furthermore, chronic inflammation of the mucosa and associated distress, caused by extended exposure to allergens and/or antigens, may be relieved within a few minutes by repeating such carbon dioxide applications. A possible mechanism of action of the above described local carbon dioxide treatment is the following. Creating a high concentration of carbon dioxide (hypercapnia) by infusing it into the nasal passages causes a very fast lowering of the pH (making more acidic) of the mucous membranes depressing the neuronal activity (inhibiting inflammatory mediator release such as histamine) of the nerves that supply the nasal mucous membranes and connect directly to the brainstem. Asthma is known to be a comorbid disease to allergic rhinitis. […] In addition, it is known that oxygenation is improved in patients with status asthmaticus, chronic obstructive pulmonary disease, and bronchiolitis by inhalation of helium. Also, inhaled nitric oxide improves the oxygenation and ventilation of most children with acute, hypoxic respiratory failure. For this reason, these respiratory ailments can be reduced or relieved by administering the above-described treatment using carbon dioxide or helium or nitric oxide. Furthermore, headaches (e.g., migraine headaches, tension-type headaches, cluster headaches, jaw pain, facial pain) are thought to be due to triggers creating a hyperexcitability state of nerves releasing inflammatory mediators such as histamine and serotonin. For this reason, headaches can be reduced or relieved by administering the above-described carbon dioxide treatment. Epilepsy, also a nervous hyperexcitability state, is known to be a comorbid disease to headaches and antiepileptic medications are used for migraine prevention. For this reason, epilepsy can be reduced or relieved by administering the above-described carbon dioxide treatment. […] Furthermore, other gases such as nitric oxide, oxygen, helium, and others may be administered similarly as therapeutic gases via the convenient hand-held easily controlled dispenser.
Furthermore, it is desirable that the user be able to conveniently but precisely and controllably select a rate and duration of carbon dioxide flow that lies between the lower limit of effectiveness and the upper limit of tolerance. […] Flows as low as 1 cc/sec for 1-2 seconds into the nose are effective for suppression of onset of acute allergic symptoms, whereas flows of 4-5 cc/sec for 5-10 seconds are typically selected for optimum relief from a mild chronic allergy attack. For severely inflamed mucosa and/or for injection into the mouth, flows as high as 10 cc/sec or higher for as long as 15 seconds or longer often are selected for optimum relief. For the treatment of tension and migraine headaches, the flow durations can be substantially longer, as generally set forth in the Dosage Guideline (Table I) above.
At low flow rates, the presence of the carbon dioxide produces a “tingling” sensation similar to that produced during drinking of carbonated beverages that inadvertently enter the nasal passages e.g., “bubbles up the nose”. This is the effective rate and the tingling is a welcome sensation because it usually coincides with immediate relief of symptoms. Above a certain subjectively determined flow rate the sensation becomes unpleasant, which may be described as a “stinging” or “burning” sensation. At a still higher flow rate (maximum tolerable rate), the stinging sensation becomes intolerable and subjects remove the device from their nostril. […] More typically, an injection rate of up to 10 cc/sec can be tolerated for 5 seconds or more into the nose by most users and into the mouth by almost all users. It must be noted, however, that the tolerance level depends strongly on the sequential phase of the application and on the degree of inflammation and/or pain at that phase. […]

For `O=C=O` [carbon dioxide], the tolerance level (a few individuals, a second or less of injection into the nose) was 1-2 cc/sec, the “suppression of onset of acute irritation of the mucosa” value (bathing mucous membrane of nose, nasal passages and mouth with gaseous carbon dioxide) was “times as short as one second can suppress the onset of acute irritation of the mucosa” and the effective flow (for 1-2 seconds into the nose, suppression of onset of acute allergic symptoms) was at least 1 cc/sec. For the same molecule, the “flow typically selected for optimum relief” value (for 5-10 seconds, mild chronic allergy attack) was 4-5 cc/sec, the tolerated injection rate (for 5 seconds or more, into the nose by most users and into the mouth by almost all users) was “up to 10 cc/sec” and the “flow often selected for optimum relief” value (severely inflamed mucosa and/or injection into the mouth, for as long as 15 seconds or longer) was at least 10 cc/sec. For the same molecule, the tolerance level (typically, at the onset of the first carbon dioxide injection) was under 3 cc/sec.
